Reference: ChEMBL document CHEMBL4651402, “Screening of ~5500 FDA-approved drugs and clinical candidates for anti-SARS-CoV-2 activity” (2021)

Test system: SARS-CoV-2
Test: microbe, parasite or virus in culture
Conditions: Severe acute respiratory syndrome coronavirus 2, Vero C1008, 48 h

Compound	IC50 [µM]	IC50 (read-out: pIC50 (converted)) [µM]
C[C@H](CCC(=O)O)[C@H]1CC[C@H]2[C@@H]3[C@@H](O)C[C@@H]4C[C@H](O)CC[C@]4(C)[C@H]3C[C@H](O)[C@]12C	> 20	> 20
CC[C@@H]1C[C@]1(NC(=O)[C@@H]1C[C@@H]2CN1C(=O)[C@H](C(C)(C)C)NC(=O)OCC(C)(C)CCCCc1cccc3c1CN(C3)C(=O)O2)C(=O)NS(=O)(=O)C1CC1	> 20	> 20
CN(C)CCCC1c2ccccc2Nc2ccc(Cl)cc21 (stereo unspecified) [CLOMACRAN]	> 20	> 20
COc1cc2c(cc1OC)C(=O)C(CC1CCN(Cc3ccccc3)CC1)C2 (stereo unspecified) [DONEPEZIL]	> 20	> 20
[N-]=[N+]=CC(=O)CC[C@H](N)C(=O)O [6-DIAZO-5-OXO-L-NORLEUCINE]	> 20	> 20
O=C(O)CCCCC(CCSCc1ccccc1)SCc1ccccc1 (stereo unspecified) [CPI 613]	> 20	> 20
CC(C(=O)O)c1cccc(Oc2ccccc2)c1 (stereo unspecified) [FENOPROFEN]	> 20	> 20
CNC(=O)c1c(I)c(C(=O)NCC(=O)Nc2c(I)c(C(=O)O)c(I)c(C(=O)NCCO)c2I)c(I)c(N(C)C(C)=O)c1I [IOXAGLIC ACID]	> 20	> 20
CC(=O)c1cc2ccccc2oc1=O [3-ACETYLCOUMARIN]	> 20	> 20
CCCc1c(OCCCOc2ccc(C(C)=O)c(OC)c2CCC)ccc2c1OC(C(=O)O)CC2 (stereo unspecified) [SC-41390]	> 20	> 20
COc1ccc(C(=O)NCc2cccnc2)cc1C(=O)NCc1cccnc1 [PICOTAMIDE]	> 20	> 20
NC1(c2ccc(-c3nc4ccn5c(=O)[nH]nc5c4cc3-c3ccccc3)cc2)CCC1 [MK-2206]	> 20	> 20
CC(=O)N(CC(O)CN(C(C)=O)c1c(I)c(C(=O)NCC(O)CO)c(I)c(C(=O)NCC(O)CO)c1I)c1c(I)c(C(=O)NCC(O)CO)c(I)c(C(=O)NCC(O)CO)c1I (stereo unspecified) [IODIXANOL]	> 20	> 20
CCN(CC)C(=S)SSC(=S)N(CC)CC	> 20	> 20
N#C[C@@H]1CCCN1C(=O)CNC12CC3CC(CC(O)(C3)C1)C2 [VILDAGLIPTIN]	> 20	> 20
O=C(c1ccccc1)c1ccccc1 [BENZOPHENONE]	> 20	> 20
O=C(O)CC/C=C\C[C@H]1CO[C@@H](c2ccccc2Cl)O[C@H]1c1ccccc1O	> 20	> 20
N[C@@H](CCC(=O)N[C@@H](Cc1c[nH]c2ccccc12)C(=O)O)C(=O)O	> 20	> 20
CO[C@H]1/C=C/O[C@@]2(C)Oc3c(C)c(O)c4c(c3C2=O)C2=NC3(CCN(CC(C)C)CC3)NC2=C(NC(=O)/C(C)=C\C=C\[C@H](C)[C@H](O)[C@@H](C)[C@@H](O)[C@@H](C)[C@H](OC(C)=O)[C@@H]1C)C4=O [RIFABUTIN]	> 20	> 20
Cc1cccc(C)c1NC(=O)C1(N(C)C)CCN([C@H]2CCCC[C@@H]2O)CC1	> 20	> 20

Compound	IC50 [µM]	IC50 (read-out: pIC50 (converted)) [µM]
CC(=O)Oc1ccc(C(=C2CCCCC2)c2ccc(OC(C)=O)cc2)cc1 [CYCLOFENIL]	> 20	> 20
CC(=O)OC1C([N+]2(C)CCCCC2)CC2C3CC[C@H]4C[C@H](OC(C)=O)C([N+]5(C)CCCCC5)CC4(C)C3CCC21C (stereo partly specified)	> 20	> 20
CCCCOc1ccc(C(=O)CCN2CCCCC2)cc1 [DYCLONINE]	> 20	> 20
C[C@]12CC[C@H](O)CC1=CC[C@@H]1[C@@H]2CC[C@]2(C)C(c3cccnc3)=CC[C@@H]12 [ABIRATERONE]	> 20	> 20
Cc1cccc(/C=N/Nc2cc(N3CCOCC3)nc(OCCc3ccccn3)n2)c1 [APILIMOD]	> 20	> 20
C=C[C@](C)(O)CC[C@H]1C(=C)C[C@H](O)[C@H]2C(C)(C)CCC[C@]12C	> 20	> 20
COC(=O)C1=CCCN(C)C1 [ARECOLINE]	> 20	> 20
CC[C@H]1OC(=O)[C@H](C)C(=O)[C@H](C)[C@@H](O[C@@H]2O[C@H](C)C[C@H](N(C)C)[C@H]2O)[C@](C)(OC)C[C@@H](C)C(=O)[C@H](C)[C@@H]2N(CCCCn3cnc(-c4cccnc4)c3)C(=O)O[C@@]21C	> 20	> 20
C=C(C)CC1(CC)C(=O)NC(=S)NC1=O	> 20	> 20
C[C@]12C=CC(=O)C=C1CC[C@H]1[C@@H]3C[C@@H](O)[C@](O)(C(=O)CO)[C@@]3(C)C[C@H](O)[C@@]12F [TRIAMCINOLONE]	> 20	> 20
COc1cc([C@H]2Oc3cc([C@H]4Oc5cc(O)cc(O)c5C(=O)[C@@H]4O)ccc3O[C@@H]2CO)ccc1O [SILYBIN A]	> 20	> 20
O=C(O)c1nn(Cc2ccc(Cl)cc2Cl)c2ccccc12 [LONIDAMINE]	> 20	> 20
CNC(=O)c1cc(COc2nnc(Nc3ccc(Cl)cc3)c3ccoc23)ccn1 [TELATINIB]	> 20	> 20
C[N+](C)(C)C[C@H](O)CC(=O)[O-] [LEVOCARNITINE]	> 20	> 20
Cc1ncc(CSSCc2cnc(C)c(O)c2CO)c(CO)c1O [PYRITINOL]	> 20	> 20
C[C@]12CC[C@H](O)CC1=CC[C@@H]1[C@@H]2CC[C@]2(C)C(n3cnc4ccccc43)=CC[C@@H]12 [GALETERONE]	> 20	> 20
CC1(C)S[C@@H]2[C@H](NC(=O)C3(N)CCCCC3)C(=O)N2[C@H]1C(=O)O [CYCLACILLIN]	> 20	> 20
CNC(=O)COc1ccccc1OCC(O)CNC(C)(C)C (stereo unspecified) [CETAMOLOL]	> 20	> 20
CN(C)Cc1ccc(CSCCNC2=NS(=O)(=O)c3cscc32)o1	> 20	> 20
CCCC[C@](C)(CO)Nc1nc(N)nc2cc(F)cnc12 [SELGANTOLIMOD]	> 20	> 20

Compound	IC50 [µM]	IC50 (read-out: pIC50 (converted)) [µM]
C[C@]12CC[C@@H]3c4ccc(O)cc4CC[C@H]3[C@@H]1CC[C@@H]2O [ESTRADIOL]	> 20	> 20
O=C(O)c1cc(/N=N/c2ccc(O)c(C(=O)O)c2)ccc1O [OLSALAZINE]	> 20	> 20
CNC(=O)c1cc(Oc2ccc(NC(=O)Nc3ccc(Cl)c(C(F)(F)F)c3)c(F)c2)ccn1 [REGORAFENIB]	> 20	> 20
CC(C)C(=O)Nc1ccc([N+](=O)O)c(C(F)(F)F)c1	> 20	> 20
Cc1cccc(Nc2ccccc2C(=O)O)c1C [MEFENAMIC ACID]	> 20	> 20
Fc1ccc2[nH]c3c(c2c1)CN(CCCc1cccnc1)CC3 [GEVOTROLINE]	> 20	> 20
CC(=O)N[C@@H](CC(=O)N[C@H](CCC(=O)O)C(=O)O)C(=O)O	> 20	> 20
CC12CCC(=O)C=C1CCC1C2C(=O)CC2(C)C1CCC2(O)C(=O)CO (stereo unspecified)	> 20	> 20
c1ccc2c(c1)CCCC2C1=NCCN1 (stereo unspecified) [TETRAHYDROZOLINE]	> 20	> 20
CCOC(=O)c1c(C)cc(O)cc1O [ORSELLINIC ACID, ETHYL ESTER]	> 20	> 20
Nc1ccc(S(=O)(=O)O)cc1	> 20	> 20
CCc1c2c(nc3ccc(O)cc13)-c1cc3c(c(=O)n1C2)COC(=O)[C@]3(O)CC [7-ETHYL-10-HYDROXYCAMPTOTHECIN]	> 20	> 20
NNCCc1ccccc1 [PHENELZINE]	> 20	> 20
OCC(O)C(O)C(O)C(O)C(O)CO (stereo unspecified) [PERSEITOL]	> 20	> 20
Nc1nc(N)c2nc(-c3cccc(O)c3)c(-c3cccc(O)c3)nc2n1 [TG100-115]	> 20	> 20
COc1cc(N)c(Cl)cc1C(=O)NC1CN2CCC1CC2 (stereo unspecified) [ZACOPRIDE]	> 20	> 20
COc1cc(Nc2c(C#N)cnc3cc(OCCCN4CCN(C)CC4)c(OC)cc23)c(Cl)cc1Cl [BOSUTINIB]	> 20	> 20
CSCC[C@H](NC(=O)[C@H](Cc1c[nH]c2ccccc12)NC(=O)CCNC(=O)OC(C)(C)C)C(=O)N[C@@H](CC(=O)O)C(=O)N[C@@H](Cc1ccccc1)C(N)=O [PENTAGASTRIN]	> 20	> 20
